Data reported in ChEMBL document CHEMBL3407397, “Effect of size and N-terminal residue characteristics on bacterial cell penetration and antibacterial activity of the proline-rich peptide Bac7” (J Med Chem, 2015).
Converted amounts (≈) assume the structure as drawn. Non-standard residues stand in square brackets, D forms with d. Residues, ends and D or L forms follow the SMILES beside them. *: point of attachment. Arg(NO2) = N=C(NCCC[C@H](N)C(=O)O)N[N+](=O)[O-]; Gly(N-(CH2)3-guanidino) = N=C(N)NCCCNCC(=O)O; Arg(Me2a) = CN(C)C(=N)NCCC[C@H](N)C(=O)O; X1 = F[B-]1(F)n2c(ccc2*)C=C2C=CC=[N+]21

Key:
Type in all cases: functional
[1] = test system: Escherichia coli; assay: Antimicrobial activity against O-antigen lacking LPS containing wild type Escherichia coli BW25113 incubated for 18 hrs at 37 degC by broth microdilution method; conditions: BW25113, 18 h
[2] = test system: Escherichia coli; assay: Antimicrobial activity against Escherichia coli ATCC 25922 incubated for 18 hrs at 37 degC by broth microdilution method; conditions: ATCC 25922, 18 h
[3] = test system: Escherichia coli; assay: Antimicrobial activity against delta-waaG deletion mutant containing Escherichia coli BW25113 incubated for 18 hrs at 37 degC by broth microdilution method; conditions: BW25113, 18 h
[4] = test system: Escherichia coli; assay: Antimicrobial activity against delta-sbmA deletion mutant containing Escherichia coli BW25113 incubated for 18 hrs at 37 degC by broth microdilution method; conditions: BW25113, 18 h
[5] = test system: Escherichia coli; assay: Antimicrobial activity against Escherichia coli HB101 incubated for 18 hrs at 37 degC by broth microdilution method; conditions: HB101, 18 h

MIC [5] [µM]	Molecule	MIC [1] [µM]	MIC [2] [µM]	MIC [3] [µM]	MIC [4] [µM]
–	H-KKIRPRPPRLPRPRPRPLPYPRP-OH	4	4	2	16
–	CC[C@H](C)[C@H](NC(=O)[C@H](CCCNC(=N)N)NC(=O)[C@@H](N)CCCNC(=N)N(C)C)C(=O)N[C@@H](CCCNC(=N)N)C(=O)N1CCC[C@H]1C(=O)N[C@@H](CCCNC(=N)N)C(=O)N1CCC[C@H]1C(=O)N1CCC[C@H]1C(=O)N[C@@H](CCCNC(=N)N)C(=O)N[C@@H](CC(C)C)C(=O)N1CCC[C@H]1C(=O)N[C@@H](CCCNC(=N)N)C(=O)N1CCC[C@H]1C(=O)N[C@@H](CCCNC(=N)N)C(=O)N1CCC[C@H]1C(=O)N[C@@H](CCCNC(=N)N)C(=O)N1CCC[C@H]1C(=O)N[C@@H](CC(C)C)C(=O)N1CCC[C@H]1C(=O)N[C@@H](Cc1ccc(O)cc1)C(=O)N1CCC[C@H]1C(=O)N[C@@H](CCCNC(=N)N)C(=O)N1CCC[C@H]1C(=O)O (H-[Arg(Me2a)]RIRPRPPRLPRPRPRPLPYPRP-OH)	2 (≈ 5.85 µg/mL)	2 (≈ 5.85 µg/mL)	0.5 (≈ 1.46 µg/mL)	8 (≈ 23.4 µg/mL)
128	H-RRIRPRPPRLPRPC-OH	–	> 128	–	–
64	H-RRIRPRPPRLPRP-OH	–	> 128	–	–
–	CC[C@H](C)[C@H](NC(=O)[C@H](CCCNC(=N)N(C)C)NC(=O)[C@@H](N)CCCNC(=N)N)C(=O)N[C@@H](CCCNC(=N)N)C(=O)N1CCC[C@H]1C(=O)N[C@@H](CCCNC(=N)N)C(=O)N1CCC[C@H]1C(=O)N1CCC[C@H]1C(=O)N[C@@H](CCCNC(=N)N)C(=O)N[C@@H](CC(C)C)C(=O)N1CCC[C@H]1C(=O)N[C@@H](CCCNC(=N)N)C(=O)N1CCC[C@H]1C(=O)N[C@@H](CCCNC(=N)N)C(=O)N1CCC[C@H]1C(=O)N[C@@H](CCCNC(=N)N)C(=O)N1CCC[C@H]1C(=O)N[C@@H](CC(C)C)C(=O)N1CCC[C@H]1C(=O)N[C@@H](Cc1ccc(O)cc1)C(=O)N1CCC[C@H]1C(=O)N[C@@H](CCCNC(=N)N)C(=O)N1CCC[C@H]1C(=O)O (H-R[Arg(Me2a)]IRPRPPRLPRPRPRPLPYPRP-OH)	4 (≈ 11.7 µg/mL)	4 (≈ 11.7 µg/mL)	1 (≈ 2.93 µg/mL)	8 (≈ 23.4 µg/mL)
–	CC[C@H](C)[C@H](NC(=O)[C@H](CCCNC(=N)N)NC(=O)[C@@H](N)CCCN/C(N)=N\[N+](=O)[O-])C(=O)N[C@@H](CCCNC(=N)N)C(=O)N1CCC[C@H]1C(=O)N[C@@H](CCCNC(=N)N)C(=O)N1CCC[C@H]1C(=O)N1CCC[C@H]1C(=O)N[C@@H](CCCNC(=N)N)C(=O)N[C@@H](CC(C)C)C(=O)N1CCC[C@H]1C(=O)N[C@@H](CCCNC(=N)N)C(=O)N1CCC[C@H]1C(=O)N[C@@H](CCCNC(=N)N)C(=O)N1CCC[C@H]1C(=O)N[C@@H](CCCNC(=N)N)C(=O)N1CCC[C@H]1C(=O)N[C@@H](CC(C)C)C(=O)N1CCC[C@H]1C(=O)N[C@@H](Cc1ccc(O)cc1)C(=O)N1CCC[C@H]1C(=O)N[C@@H](CCCNC(=N)N)C(=O)N1CCC[C@H]1C(=O)O (H-[Arg(NO2)]RIRPRPPRLPRPRPRPLPYPRP-OH)	4 (≈ 11.8 µg/mL)	4 (≈ 11.8 µg/mL)	1 (≈ 2.94 µg/mL)	8 (≈ 23.5 µg/mL)
8	H-RRIRPRPPRLPRPRPC-OH	–	8	–	–
–	CC[C@H](C)[C@H](NC(=O)[C@H](CCCNC(=N)N(C)C)NC(=O)[C@@H](N)CCCNC(=N)N(C)C)C(=O)N[C@@H](CCCNC(=N)N)C(=O)N1CCC[C@H]1C(=O)N[C@@H](CCCNC(=N)N)C(=O)N1CCC[C@H]1C(=O)N1CCC[C@H]1C(=O)N[C@@H](CCCNC(=N)N)C(=O)N[C@@H](CC(C)C)C(=O)N1CCC[C@H]1C(=O)N[C@@H](CCCNC(=N)N)C(=O)N1CCC[C@H]1C(=O)N[C@@H](CCCNC(=N)N)C(=O)N1CCC[C@H]1C(=O)N[C@@H](CCCNC(=N)N)C(=O)N1CCC[C@H]1C(=O)N[C@@H](CC(C)C)C(=O)N1CCC[C@H]1C(=O)N[C@@H](Cc1ccc(O)cc1)C(=O)N1CCC[C@H]1C(=O)N[C@@H](CCCNC(=N)N)C(=O)N1CCC[C@H]1C(=O)O (H-[Arg(Me2a)][Arg(Me2a)]IRPRPPRLPRPRPRPLPYPRP-OH)	8 (≈ 23.6 µg/mL)	8 (≈ 23.6 µg/mL)	2 (≈ 5.91 µg/mL)	16 (≈ 47.3 µg/mL)
–	CC[C@H](C)[C@H](NC(=O)CN(CCCNC(=N)N)C(=O)CNCCCNC(=N)N)C(=O)N[C@@H](CCCNC(=N)N)C(=O)N1CCC[C@H]1C(=O)N[C@@H](CCCNC(=N)N)C(=O)N1CCC[C@H]1C(=O)N1CCC[C@H]1C(=O)N[C@@H](CCCNC(=N)N)C(=O)N[C@@H](CC(C)C)C(=O)N1CCC[C@H]1C(=O)N[C@@H](CCCNC(=N)N)C(=O)N1CCC[C@H]1C(=O)N[C@@H](CCCNC(=N)N)C(=O)N1CCC[C@H]1C(=O)N[C@@H](CCCNC(=N)N)C(=O)N1CCC[C@H]1C(=O)N[C@@H](CC(C)C)C(=O)N1CCC[C@H]1C(=O)N[C@@H](Cc1ccc(O)cc1)C(=O)N1CCC[C@H]1C(=O)N[C@@H](CCCNC(=N)N)C(=O)N1CCC[C@H]1C(=O)O (H-[Gly(N-(CH2)3-guanidino)][Gly(N-(CH2)3-guanidino)]IRPRPPRLPRPRPRPLPYPRP-OH)	0.5 (≈ 1.45 µg/mL)	1 (≈ 2.9 µg/mL)	0.5 (≈ 1.45 µg/mL)	8 (≈ 23.2 µg/mL)
–	CC[C@H](C)[C@H](NC(=O)[C@@H](CCCNC(=N)N)NC(=O)[C@H](N)CCCNC(=N)N)C(=O)N[C@@H](CCCNC(=N)N)C(=O)N1CCC[C@H]1C(=O)N[C@@H](CCCNC(=N)N)C(=O)N1CCC[C@H]1C(=O)N1CCC[C@H]1C(=O)N[C@@H](CCCNC(=N)N)C(=O)N[C@@H](CC(C)C)C(=O)N1CCC[C@H]1C(=O)N[C@@H](CCCNC(=N)N)C(=O)N1CCC[C@H]1C(=O)N[C@@H](CCCNC(=N)N)C(=O)N1CCC[C@H]1C(=O)N[C@@H](CCCNC(=N)N)C(=O)N1CCC[C@H]1C(=O)N[C@@H](CC(C)C)C(=O)N1CCC[C@H]1C(=O)N[C@@H](Cc1ccc(O)cc1)C(=O)N1CCC[C@H]1C(=O)N[C@@H](CCCNC(=N)N)C(=O)N1CCC[C@H]1C(=O)O	4 (≈ 11.6 µg/mL)	4 (≈ 11.6 µg/mL)	2 (≈ 5.8 µg/mL)	16 (≈ 46.4 µg/mL)
0.5	H-RRIRPRPPRLPRPRPR-OH	–	0.5	–	–
0.5 (≈ 1.18 µg/mL)	CC[C@H](C)[C@H](NC(=O)[C@H](CCCNC(=N)N)NC(=O)[C@@H](N)CCCNC(=N)N)C(=O)N[C@@H](CCCNC(=N)N)C(=O)N1CCC[C@H]1C(=O)N[C@@H](CCCNC(=N)N)C(=O)N1CCC[C@H]1C(=O)N1CCC[C@H]1C(=O)N[C@@H](CCCNC(=N)N)C(=O)N[C@@H](CC(C)C)C(=O)N1CCC[C@H]1C(=O)N[C@@H](CCCNC(=N)N)C(=O)N1CCC[C@H]1C(=O)N[C@@H](CCCNC(=N)N)C(=O)N1CCC[C@H]1C(=O)N[C@@H](CCCNC(=N)N)C(=O)N[C@@H](CSc1ccc2n1[B-](F)(F)[N+]1=CC=CC1=C2)C(=O)O (H-RRIRPRPPRLPRPRPRC(X1)-OH)	–	0.5 (≈ 1.18 µg/mL)	–	–
16	H-RRIRPRPPRLPRPRP-OH	–	32	–	–
